Paper PMC7845594, “Novel Immune Modulators Enhance Caenorhabditis elegans Resistance to Multiple Pathogens” (mSphere, 2021)
Where “and” joins values, the source holds several entries; their conditions need not be identical. Equal values may be shown once.

Experiments:
SKN-1/Nrf pathway = experiment: gst-4p::GFP reporter; type: in vivo, Caenorhabditis elegans; conditions: 100 μM in 1% DMSO, no pathogen
Source text: To test activation of these pathways, worms carrying GFP-based reporters for the SKN-1/Nrf, PMK-1/p38 MAPK, and DAF-16/FOXO pathways (gst-4p::GFP, irg-5p::GFP, and DAF-16::GFP, respectively) were exposed to each compound in S Basal medium in the absence of the pathogen.
FIG 4 A subset of LK molecules activates reporters for the SKN-1/Nrf2 or PMK-1/p38 MAPK pathways. […] Also present are DMSO and ethanol negative controls for LK compounds and juglone, respectively. The fluorescence intensity was normalized to that of DMSO. (B) Worms carrying an irg-5p::GFP reporter for PMK-1/p38 MAPK activity were incubated at 25, 50, or 100 μM in 1% DMSO. Positive and negative controls consisted of 100 μM RPW-24 in 1% DMSO and 1% DMSO alone. Fluorescence was measured at 24 h. For both panels, ∼50 worms were used per well, and at least three wells were used per condition for each biological replicate. Mean values from at least three biological replicates are shown. *, P < 0.05; **, P < 0.01; ***, P < 0.001 compared to the solvent control. P values were calculated using Student’s t test. Error bars represent the standard error of the mean.
Worms were washed three times prior to incubation with compounds or DMSO control and diluted in S Basal medium supplemented with E. coli OP50 (OD600 = 0.08) as a food source. The fluorescence fold increase for gst-4p::GPF was taken as the fluorescence of each well and was normalized to the well’s fluorescence at 0 h. irg-5p::GFP, hsp-16.1p::GFP, rpt-6p::GFP, and hsp-4::GFP fluorescence was quantified as the fluorescence/worm area. For gst-4p::GFP, 100 µM ethanol-solubilized juglone was used as a positive control. Ethanol was also tested at 1% (vol/vol) as a control. For irg-5p::GFP, RPW-24 (100 µM) was used as a positive control. For quantification of nuclear localization of GFP fusion reporters, worms were scored as either localization positive or localization negative. DAF-16::GFP worms were scored as localization positive if >5 nuclei within the worm had localized GFP. All worms were imaged at the L4-young adult stage. […]

glp-4(bn2) worms = experiment: Longevity (life span) assay; conditions: 50 μM in NGM, E. coli OP50, Fig 3A
Procedure: To test the long-term toxicity of the hit compounds, life span assays were carried out by placing sterile, young adult glp-4(bn2) worms on NGM (standard nematode growth media, defined in Materials and Methods) seeded with Escherichia coli OP50. […] Sterile worms were used to eliminate the need to transfer worms between plates during life span assays, and we elected to use glp-4(bn2) to induce sterility instead of using wild-type worms sterilized with 5-fluoro-2′-deoxyuridine (FUDR) because the interaction of the compounds could generate artifacts during the long course of life span experiments.
Worms were scored daily by prodding. […] The viability was normalized to a DMSO solvent control. […] Error bars represent standard error of the mean.
Worms were picked onto agar plates seeded with 50 µl of concentrated E. coli OP50. Compounds were added to liquid agar before pouring plates. Worms were scored every day for death by prodding with a platinum wire. Worms that escaped the plate or died on the wall of the plate were censored. Each compound was tested in at least three biological replicates, each including 50 to 70 worms.

[1] = test system: glp-4(bn2) C. elegans exposed to P. aeruginosa PA14; experiment: P. aeruginosa liquid killing assay (effective rescue concentration); type: in vivo, Caenorhabditis elegans; conditions: glp-4(bn2) worms, ± 95% confidence interval
Procedure: For the first round of characterization, 69 novel small molecules previously selected on the basis of their ability to improve C. elegans survival during exposure to P. aeruginosa in liquid ([14]) were tested for the ability to interfere with bacterial growth. MICs were determined for each compound by growing P. aeruginosa strain PA14 in static culture in 384-well plates with serial 2-fold dilutions of compounds. No worms were used in these assays. Next, effective rescue concentrations (EC; defined as the minimum concentration that results in statistically significant survival, compared to dimethyl sulfoxide [DMSO]) ([15], [18]) were determined for each compound using the standard P. aeruginosa liquid killing assay. Sterile glp-4(bn2) worms were used in all liquid-based assays to limit artifacts (i.e., unlaid eggs will hatch and cause matricide).
FIG 1 LK molecules rescue C. elegans from P. aeruginosa in liquid killing. […] (B) Lipinski values for the five LK molecules, showing their molecular mass, predicted octanol-water partition coefficient, polar surface area, number of hydrogen donors and acceptors, and the number of rotatable bonds. (C) Minimum effective concentrations (EC) and 95% confidence interval, MICs (defined as the minimum concentration to prevent grown in LB media), and their ratio (MIC/EC). The minimum effective concentration was calculated from the lowest concentration that retained statistically significant rescue of glp-4(bn2) C. elegans, a temperature-sensitive sterile strain, from exposure to P. aeruginosa PA14. […] Compounds were added in serial 2-fold dilutions from 50 µM to 12.5 μM. *, P < 0.05; **, P < 0.01; ***, P < 0.001. P values were calculated using Student’s t test. At least six wells containing 20 worms each per condition per replicate were used for determination of liquid killing. EC values were calculated based on at least three biological replicates. Error bars represent the standard error of the mean.
Liquid killing of C. elegans was performed as previously described with some changes ([91]). In brief, an overnight culture of LB medium was inoculated with a single colony of Pseudomonas aeruginosa strain PA14. Then, 400 µl of culture was spread onto a 10-cm slow-kill agar plate ([91]) and grown for 24 h at 37°C, followed by 24 h at 25°C. Bacteria were scraped from the plate, resuspended in S Basal medium, and added to 384-well plates with small molecules dissolved in DMSO. Solution in wells contained a final concentration of 40% SK media, 59% S Basal medium, 1% DMSO, and small molecules. For all liquid-based killing assays, solvent control wells contained 1% DMSO. MgSO4 and CaCl2 (300 µM) and cholesterol (1.6 µg/ml) were added to aid in production of virulence factors. Worms were sorted into 384-well plates using a COPAS FlowSort (Union Biometrica, Holliston, MA), incubated at 25°C until the DMSO control was roughly 35 to 55% dead, washed four times using an EL406 microplate washer (BioTek, VT), and stained with 50 μl of Sytox Orange at 1 µM to fluorescently stain dead worms. Wells were imaged in bright-field and RFP channels using the BioTek Cytation5, followed by image analysis using the CellProfiler software package to calculate fraction of dead worms in each well. EC values were defined as the minimum concentration that provided statistically significant rescue. At least three biological replicates were performed.

SMILES | gst-4p::GFP induction (SKN-1/Nrf activation) (SKN-1/Nrf pathway) | TD50 (time to 50% death), life span (glp-4(bn2) worms) [days] | EC (minimum effective concentration giving statistically significant rescue) [1]
COC(=O)/C=C/C(=O)Nc1ccccc1 [LK32] | induced gst-4p::GFP | 8.8 | 32 ± 0.0 µM and 32 µM
O=c1cc(CNc2ccc(Br)cc2)nc2sccn12 [LK56] | not activated | 7.8 | 7.3 ± 1.9 µM and 7.3 µM
CNC(=O)Oc1c(Br)cc2sc(=O)oc2c1Br [LK34] | induced gst-4p::GFP | 10.1 | 9.3 ± 4.4 µM and 9.3 µM
CN(C)/N=N/c1ccc(-c2cn(Cc3ccccc3)cn2)cc1 [LK38] |  | 7.6 | 6.7 ± 2.0 µM
CCN(CC)/N=N/c1ccc(C(=O)O)cc1 [LK35] |  | 7.7 | 17.3 ± 6.1 µM
